Experimental data from patent US20220409692A1, “Systems Chemico-Pharmacology Drugs and Methods of Use” (The Medical College of Wisconsin, priority 2019, published 2022).
Peptide text beside a SMILES is read from it.

Tests used:
[1] = tested on: cultured endothelial cells; details: added to culture media; cited from earlier work
RLMVEC = assay: KYC thiylation of endothelial cell proteins in RLMVEC cultures; assay type: cell-based, rat
From the text: FIG. 29. Effects of Oxidative Stress on KYC Thiylation of RLMVEC Proteins. (A) Streptavidin affinity blot of KYC thiylated proteins from cell lysates prepared from RLMVEC cultures treated with B-KYC (baseline), B-KYC+MPO+H2O2 (MPO-dependent), and B-KYC+H2O2 (H2O2-dependent). (B) Immunoblot for Nrf2 in RLMVEC cultures treated as described in A. (C) Immunoblot for Keap1 in RLMVEC cultures treated as described in A. (D) Immunoblot for HMGB1 in RLMVEC cultures treated as described in A.(E) Immunoblot for β-Actin in RLMVEC cultures treated as described in A.(F) Bar chart showing relative levels of KYC thiylation, Nrf2, Keap1, and HMGB1 as a function of β-Actin (n=2, *=p<0.05, statistical analysis was preformed by ANOVA with appropriate post hoc tests).
FIG. 31. MPO Oxidation of KYC Increases KYC Thiylation of Extracellular HMGB1. […] This conclusion is based on the relative levels of KYC thiylated HMGB1 in panel A vs. KYC thiylated HMGB1 as a function of HMGB1 protein in conditioned media vs. RLMVEC cell lysates.
Rat lung microvascular endothelial cells (RLMVEC) from neonatal Sprague-Dawley rats (RN-6011) and rat endothelial growth medium (EGM, M1266SF) were from Cell Biologics (Chicago, Ill.). Amicon®Ultra-4 centrifugal concentrators with 3K cut-off (UFC800324) were from Merck Millipore Ltd (Carrigtwohill, Ireland). PierceTM Streptavidin (#88816), Protein G (#88848), Protein A Magnetic Beads (#88845), PierceTM ECL Western Blotting Substrate (#32106), and SuperSignalTM West Femto Maximum Sensitivity Substrate (#34095) were from Thermo Fisher Scientific (Waltham, MA). Rabbit antibodies for myeloperoxidase heavy chain (MPO, sc-33596) and TLR4 (sc-10741) were from Santa Cruz Biotechnology (Dallas, Texas). Rabbit antibody for Cl-Tyr (HP5002) was from Hycult Biotech (Plymouth Meeting, PA). The chicken antibody for HMGB1 (326052233) was from SHINO-TEST Corporation (Kanagawa, Japan). Rabbit antibody for RAGE (GTX23611) was from GeneTex (Irvine, CA). Mouse antibodies for PECAM-1/CD31 (ab24590), for 8-OH-dG (ab48508), and for rat endothelial cell antigen-1 (RECA-1, ab9774) were from Abcam (Cambridge, MA). Rabbit antibody for Cox1 (sc-7950) and Cox2 (sc-7951) were from Santa Cruz Biotechnology. Mouse (ab190377) and rabbit (ab77302b) antibodies for HMGB1, and streptavidin-HRP (ab7403) were from Abcam (Cambridge, Mass.). Rabbit antibody for acetylated-HMGB1 (OASG03545) was from Aviva System Biology (San Diego, Calif.). Rabbit antibodies for Nrf2 (sc-722) and TLR4 (sc-30002) were from Santa Cruz Biotechnology (Dallas, Tex.). Rabbit antibody against Keap1 (ABS97) and mouse antibody for β-actin (A2228) were from Millipore-Sigma (St. Louis, Mo.). Rabbit antibody for cysteine sulfonyl (ADI-OSA-820) was from Enzo Life Sciences (Farmingdale, N.Y.). Mouse antibody for glutathionylated proteins (D8) and all other chemicals were from Sigma-Aldrich (St. Louis, Mo.). All antibodies were certified either by the manufacturer or were used previously and certified by the authors, as was the case for the anti-HMGB1 antibody.
Effects of Oxidative Stress on KYC Thiylation on Endothelial Cell Proteins in RLMVEC Cultures: To determine the effects of oxidative stress on KYC thiylation, RLMVEC cultures were treated with B-KYC to follow KYC thiylation with streptavidin-affinity blotting as outlined in Methods. Three different levels of oxidative stress were used to determine the effects of oxidative stress on KYC thiylation of endothelial cell proteins: media alone (baseline); media containing MPO+H2O2 (MPO-dependent); and media containing H2O2 alone (H2O2-dependent) (FIG. 29A). KYC thiylation of RLMVEC proteins at baseline was low (FIG. 29A, first two lanes).

adult mice = assay: Review of KYC doses in previous studies in adult mice; assay type: in vivo, mouse; details: 15 mg/kg twice per day vs 800 mg/kg
Protocol: No KYC dose-response studies were performed in neonatal rat pups in preparation for the current study. Instead, we decided to treat neonatal rat pups empirically with KYC at 5 mg/kg twice per day based on published and unpublished data in adult mice. […] The dose of KYC used in the current study is based on our experience in treating chronic inflammation in other disease states and is within the range that we consider appropriate for neonatal rat pups and adult rats.

[2] = RLMVEC cultures, baseline vs MPO-dependent vs H2O2-dependent

For `CC(=O)N[C@@H](CCCCN)C(=O)N[C@@H](Cc1ccc(O)cc1)C(=O)N[C@@H](CS)C(N)=O` [KYC, N-acetyl lysyltyrosylcysteine amide] (Ac-Lys-Tyr-Cys-NH2), the “concentration with little to no effect on endothelial cell viability, apoptosis, necrosis, or mitochondrial function” value [1] is listed as “up to 4000 μM”, the “HMGB1 expression relative to β-actin” value (RLMVEC; [2]) is listed as “increased in RLMVEC cultures subjected to H2O2-dependent KYC thiylation” and the “Keap1 expression relative to β-actin” value (RLMVEC; [2]) is listed as “followed a pattern similar to Nrf2”. For the same compound, the “Nrf2 expression relative to β-actin” value (RLMVEC; [2]) was “increased in RLMVEC cultures subjected to MPO-dependent KYC thiylation”, the “KYC thiylation of HMGB1 released from RLMVEC cultures” value (RLMVEC; conditioned media, no KYC vs KYC vs MPO+H2O2+KYC) was “greater in RLMVEC cultures incubated with MPO+H2O2+KYC” and the “factor by which the higher dose is below the KYC level observed to induce adverse effects” value (adult mice) was “more than 26 times”.
